Data reported in PubChem BioAssay (NCI).
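Compound exposure: 48 hours, 5 concentrations, 96-well plates. GI50: concentration for 50% inhibition of growth. The concentration for full growth arrest is given as TGI.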

Legend:
Assay in all cases: NCI anticancer screen, dose series, 48 h
NCI-H226 lung = system: NCI-H226 lung
OVCAR-8 ovarian = system: OVCAR-8 ovarian
HS 578T breast = system: HS 578T breast
ACHN renal = system: ACHN renal
U251 CNS = system: U251 CNS
SN12C renal = system: SN12C renal
HL-60(TB) leukemia = system: HL-60(TB) leukemia
SK-MEL-28 melanoma = system: SK-MEL-28 melanoma
A549 NSCLC = system: A549 NSCLC
HOP-62 NSCLC = system: HOP-62 NSCLC
K-562 leukemia = system: K-562 leukemia
SK-MEL-5 melanoma = system: SK-MEL-5 melanoma
786-0 renal = system: 786-0 renal
T-47D breast = system: T-47D breast
PC-3 prostate = system: PC-3 prostate
BT-549 breast = system: BT-549 breast
SNB-19 CNS = system: SNB-19 CNS
SK-OV-3 ovarian = system: SK-OV-3 ovarian
UO-31 renal = system: UO-31 renal
M14 melanoma = system: M14 melanoma
UACC-257 melanoma = system: UACC-257 melanoma
A498 renal = system: A498 renal
RPMI-8226 leukemia = system: RPMI-8226 leukemia
SNB-75 CNS = system: SNB-75 CNS
SF-539 CNS = system: SF-539 CNS
NCI-H460 lung = system: NCI-H460 lung
NCI-H23 lung = system: NCI-H23 lung
MALME-3M melanoma = system: MALME-3M melanoma
HT29 colon = system: HT29 colon
NCI-H522 lung = system: NCI-H522 lung
HOP-92 NSCLC = system: HOP-92 NSCLC
SK-MEL-2 melanoma = system: SK-MEL-2 melanoma
MDA-MB-435 = system: MDA-MB-435
MDA-MB-231 breast = system: MDA-MB-231 breast
MCF7 breast = system: MCF7 breast
HCC-2998 colon = system: HCC-2998 colon
HCT-15 colon = system: HCT-15 colon
RXF 393 renal = system: RXF 393 renal
OVCAR-4 ovarian = system: OVCAR-4 ovarian
SW-620 colon = system: SW-620 colon
MOLT-4 leukemia = system: MOLT-4 leukemia
HCT-116 colon = system: HCT-116 colon
EKVX NSCLC = system: EKVX NSCLC
DU-145 prostate = system: DU-145 prostate
LOX IMVI melanoma = system: LOX IMVI melanoma
SF-268 CNS = system: SF-268 CNS
TK-10 renal = system: TK-10 renal
NCI/ADR-RES ovarian = system: NCI/ADR-RES ovarian
OVCAR-5 ovarian = system: OVCAR-5 ovarian
UACC-62 melanoma = system: UACC-62 melanoma
COLO 205 colon = system: COLO 205 colon
IGROV1 ovarian = system: IGROV1 ovarian
KM12 colon = system: KM12 colon
SF-295 CNS = system: SF-295 CNS
OVCAR-3 ovarian = system: OVCAR-3 ovarian
CCRF-CEM leukemia = system: CCRF-CEM leukemia
CAKI-1 renal = system: CAKI-1 renal

Compound: Cn1ccnc1Oc1ccc(Cl)cc1
- TGI (NCI-H226 lung): 44.3 µM
- TGI (OVCAR-8 ovarian): 22.4 µM
- TGI (HS 578T breast): 66.1 µM
- TGI (ACHN renal): 25.4 µM
- TGI (U251 CNS): 46.7 µM
- TGI (SN12C renal): 26.4 µM
- TGI (HL-60(TB) leukemia): 11.1 µM
- TGI (SK-MEL-28 melanoma): 27.4 µM
- TGI (A549 NSCLC): > 100 µM
- TGI (HOP-62 NSCLC): 65.6 µM
- TGI (K-562 leukemia): 42.3 µM
- TGI (SK-MEL-5 melanoma): 27.1 µM
- TGI (786-0 renal): 24.7 µM
- TGI (T-47D breast): 14.3 µM
- TGI (PC-3 prostate): 34.2 µM
- TGI (BT-549 breast): 65.7 µM
- TGI (SNB-19 CNS): > 100 µM
- TGI (SK-OV-3 ovarian): > 100 µM
- TGI (UO-31 renal): 23.9 µM
- TGI (M14 melanoma): 37.2 µM
- TGI (UACC-257 melanoma): 21.5 µM
- TGI (A498 renal): 46.4 µM
- TGI (RPMI-8226 leukemia): 2.85 µM
- TGI (SNB-75 CNS): 51.8 µM
- TGI (SF-539 CNS): 31.7 µM
- TGI (NCI-H460 lung): > 100 µM
- TGI (NCI-H23 lung): 39.5 µM
- TGI (MALME-3M melanoma): 10.2 µM
- TGI (HT29 colon): 26.6 µM
- TGI (NCI-H522 lung): 11.6 µM
- TGI (HOP-92 NSCLC): 24.4 µM
- TGI (SK-MEL-2 melanoma): 39.5 µM
- TGI (MDA-MB-435): 25.1 µM
- TGI (MDA-MB-231 breast): 37.4 µM
- TGI (MCF7 breast): 38.3 µM
- TGI (HCC-2998 colon): 14.9 µM
- TGI (HCT-15 colon): 23.9 µM
- TGI (RXF 393 renal): 37.1 µM
- TGI (OVCAR-4 ovarian): 19.8 µM
- TGI (SW-620 colon): 26.4 µM
- TGI (MOLT-4 leukemia): 7.01 µM
- TGI (HCT-116 colon): 24.3 µM
- TGI (EKVX NSCLC): 49.1 µM
- TGI (DU-145 prostate): 30.7 µM
- TGI (LOX IMVI melanoma): 36.6 µM
- TGI (SF-268 CNS): 99.4 µM
- TGI (TK-10 renal): 32.6 µM
- TGI (NCI/ADR-RES ovarian): 49 µM
- TGI (OVCAR-5 ovarian): 35.7 µM
- TGI (UACC-62 melanoma): 23.5 µM
- TGI (COLO 205 colon): 25.7 µM

Compound: C[n+]1c2ccccc2nc2c(N)cc(N)cc21
- GI50 (NCI-H226 lung): 8.41 µM
- TGI (NCI-H226 lung): > 100 µM
- GI50 (HS 578T breast): 3.63 µM
- TGI (HS 578T breast): 20.6 µM
- GI50 (ACHN renal): 45.6 µM
- TGI (ACHN renal): > 100 µM
- GI50 (U251 CNS): 2.5 µM
- TGI (U251 CNS): > 100 µM
- GI50 (SN12C renal): 2.55 µM
- TGI (SN12C renal): 14 µM
- GI50 (HL-60(TB) leukemia): 6.39 µM
- TGI (HL-60(TB) leukemia): 35.8 µM
- GI50 (SK-MEL-28 melanoma): 10.3 µM
- TGI (SK-MEL-28 melanoma): 24.1 µM
- GI50 (A549 NSCLC): 14.1 µM
- TGI (A549 NSCLC): > 100 µM
- GI50 (HOP-62 NSCLC): 3.48 µM
- TGI (HOP-62 NSCLC): 38.1 µM
- GI50 (K-562 leukemia): 3.07 µM
- TGI (K-562 leukemia): 33.2 µM
- GI50 (SK-MEL-5 melanoma): 2.56 µM
- TGI (SK-MEL-5 melanoma): 7.09 µM
- GI50 (786-0 renal): 5.43 µM
- TGI (786-0 renal): > 100 µM
- GI50 (T-47D breast): 3.95 µM
- TGI (T-47D breast): 40.9 µM
- GI50 (PC-3 prostate): 21.3 µM
- TGI (PC-3 prostate): > 100 µM
- GI50 (BT-549 breast): 2.62 µM
- TGI (BT-549 breast): 12.5 µM
- GI50 (SNB-19 CNS): 2.9 µM
- TGI (SNB-19 CNS): 14.4 µM
- GI50 (SK-OV-3 ovarian): 25.8 µM
- TGI (SK-OV-3 ovarian): > 100 µM
- GI50 (UO-31 renal): 26.2 µM
- TGI (UO-31 renal): > 100 µM
- GI50 (M14 melanoma): 19.1 µM
- TGI (M14 melanoma): 76.3 µM
- GI50 (A498 renal): 69.2 µM
- TGI (A498 renal): > 100 µM
- GI50 (RPMI-8226 leukemia): 4.54 µM
- TGI (RPMI-8226 leukemia): 33.9 µM
- GI50 (SNB-75 CNS): 5.2 µM
- TGI (SNB-75 CNS): 18.7 µM
- GI50 (SF-539 CNS): 5.41 µM
- TGI (SF-539 CNS): 32.2 µM
- GI50 (IGROV1 ovarian): 14.4 µM
- TGI (IGROV1 ovarian): 57 µM
- GI50 (NCI-H460 lung): 16.8 µM
- TGI (NCI-H460 lung): 59 µM
- GI50 (NCI-H23 lung): 5.13 µM
- TGI (NCI-H23 lung): 26.6 µM
- GI50 (MALME-3M melanoma): 2.39 µM
- TGI (MALME-3M melanoma): 9.77 µM
- GI50 (KM12 colon): 13.7 µM
- TGI (KM12 colon): > 100 µM
- GI50 (SF-295 CNS): 3.6 µM
- TGI (SF-295 CNS): 31 µM
- GI50 (HT29 colon): 15.3 µM
- TGI (HT29 colon): > 100 µM
- GI50 (HOP-92 NSCLC): 35.4 µM
- TGI (HOP-92 NSCLC): > 100 µM
- GI50 (MDA-MB-435): 15.9 µM
- TGI (MDA-MB-435): 41.5 µM
- GI50 (MDA-MB-231 breast): 21.7 µM
- TGI (MDA-MB-231 breast): > 100 µM
- GI50 (MCF7 breast): 5.1 µM
- TGI (MCF7 breast): 37.3 µM
- GI50 (HCC-2998 colon): 12.6 µM
- TGI (HCC-2998 colon): 93.2 µM
- GI50 (HCT-15 colon): 57.6 µM
- TGI (HCT-15 colon): > 100 µM
- GI50 (OVCAR-4 ovarian): 5.87 µM
- TGI (OVCAR-4 ovarian): > 100 µM
- GI50 (SW-620 colon): 10.7 µM
- TGI (SW-620 colon): > 100 µM
- GI50 (OVCAR-3 ovarian): 3.69 µM
- TGI (OVCAR-3 ovarian): 22.8 µM
- GI50 (MOLT-4 leukemia): 3 µM
- TGI (MOLT-4 leukemia): 22.6 µM
- GI50 (HCT-116 colon): 10.5 µM
- TGI (HCT-116 colon): 83.6 µM
- GI50 (EKVX NSCLC): 8.04 µM
- TGI (EKVX NSCLC): > 100 µM
- GI50 (DU-145 prostate): 16 µM
- TGI (DU-145 prostate): > 100 µM
- GI50 (LOX IMVI melanoma): 18 µM
- TGI (LOX IMVI melanoma): 94 µM
- GI50 (CCRF-CEM leukemia): 4.63 µM
- TGI (CCRF-CEM leukemia): 48.3 µM
- GI50 (CAKI-1 renal): 0.519 µM
- TGI (CAKI-1 renal): 19 µM
- GI50 (SF-268 CNS): 0.712 µM
- TGI (SF-268 CNS): 13.6 µM
- GI50 (TK-10 renal): 64.9 µM
- TGI (TK-10 renal): > 100 µM
- GI50 (NCI/ADR-RES ovarian): 83.3 µM
- TGI (NCI/ADR-RES ovarian): > 100 µM
- GI50 (OVCAR-5 ovarian): > 100 µM
- TGI (OVCAR-5 ovarian): > 100 µM
- GI50 (UACC-62 melanoma): 12.9 µM
- TGI (UACC-62 melanoma): 31.7 µM
- GI50 (COLO 205 colon): 3.49 µM
- TGI (COLO 205 colon): 19.4 µM
